Source: paper PMC7979765, “trans-Translation inhibitors bind to a novel site on the ribosome and clear Neisseria gonorrhoeae in vivo” (Nature Communications, 2021)
≈ marks a conversion by molar mass, not a printed value. Where “and” joins values, the source holds several entries; their conditions need not be identical. Identical values can stand only once. Entries after “also recorded” stand apart in the source; their conditions may differ. Like-named read-outs stand apart in the source and are kept apart here.

What was measured:
translation = assay: In vitro translation assay (full-length nano-luciferase gene); assay type: biochemical, Escherichia coli; conditions: for % of translation activity: 0 uM = 100
[1] = Liver microsome stability, rat; assay type: in vitro ADME
Description: To examine potential for first-pass metabolism of analogs in the liver, the stability of analogs in the presence of liver microsome preparations (Eurofins Discovery for human, dog and rat; Xenotech for mouse) was measured using the method of Kuhnz, et al.[50]. for murine studies and Oback for the dog, human and rat studies. The amount of parent compound remaining after incubation with microsomes in the presence of NADPH over a 30 min time range was measured using a reverse-phase liquid chromatography/mass spectroscopy method that was customized for each compound. Half-lives were calculated using linear regression analysis of several time points.

[2] = Serum protein binding, dog; assay type: in vitro ADME
Description: Serum protein binding was determined using an equilibrium dialysis method as described. The amount of compound in each chamber (buffer and serum) was measured using methods for reverse-phase liquid chromatography/mass spectroscopy methods that were customized for each compound.

Haemophilus influenzae = assay: MIC, microbroth dilution; assay type: cell-based
[3] = Mitochondrial toxicity assay, glucose vs galactose; assay type: cell-based; conditions: human, HepG2; for viability at 24 h, 100 µM: Conc. (μM) 1.00E-04; for viability at 24 h, 3 µM: Conc. (μM) 3.00E-06
Description: (§1) Mitochondrial toxicity assay — HepG2 cells (ATCC) were seeded and cultured in media containing either glucose or galactose overnight. Test compounds were added at 8 concentrations ([…] from 100 µM to 30 nM) and incubated with the cells for 24 h. Cell viability was measured by the alamarBlue method. The data in Supplementary Table 7 are inconsistent with MBX-4132 disrupting mitochondrial metabolic processes. Assays were performed at Eurofins Cerep Panlabs.

HepG2 cells = assay: Mitochondrial toxicity assay, glucose vs galactose; assay type: cell-based; conditions: for % viability: HepG2, replicates
Description: as §1

CYP1A = assay: Cyp inhibition assay 4876; assay type: in vitro ADME, human; conditions: catalog reference 4876
Description: (§2) Several in vitro selectivity assays were performed at Eurofins Discovery Services using established methods and controls that behaved as expected (Supplementary Tables 5 and 6). […] For receptor panel profiling, MBX-4132 was evaluated at 10 μM and activity of >50% (agonist or antagonist; note that negative % inhibition indicates agonism) was scored as active.

CYP2C19 = molecular target: T1, CYP2C19 (Homo sapiens, UniProt P33261); assay: Cyp inhibition assay 4874; assay type: in vitro ADME; conditions: catalog reference 4874, read-out: pIC50 (µM) reported (converted)
T1 construct: Eurofins Discovery Services (contract assay) 4874
Description: as §2

CYP2D6 = molecular target: T2, CYP2D6 (Homo sapiens, UniProt P10635); assay: Cyp inhibition assay 4875; assay type: in vitro ADME; conditions: catalog reference 4875, read-out: pIC50 (µM) reported (converted)
T2 construct: Eurofins Discovery Services (contract assay) 4875
Description: as §2

Cycloogenase COX-2 = molecular target: T3, Cycloogenase COX-2 (Homo sapiens, UniProt P35354); assay: Receptor Profiling 118030; assay type: biochemical
T3 construct: Eurofins Discovery Services (contract assay) 118030
Description: as §2

Phosphodiesterase PDE3A = molecular target: T4, Phosphodiesterase PDE3A (Homo sapiens, UniProt Q14432); assay: Receptor Profiling 152300; assay type: biochemical
T4 construct: Eurofins Discovery Services (contract assay) 152300
Description: as §2

Dopamine D2s = molecular target: T5, Dopamine D2s (Homo sapiens, UniProt P14416); assay: Receptor Profiling 219700; assay type: binding
T5 construct: purchased Eurofins Discovery Services (Panlabs safety panel)
Description: as §2

Endothelin ETA = molecular target: T6, Endothelin ETA (Homo sapiens, UniProt P25101); assay: Receptor Profiling 224010; assay type: binding
T6 construct: purchased Eurofins Discovery Services (Panlabs safety panel)
Description: as §2

Histamine H1 = molecular target: T7, Histamine H1 (Homo sapiens, UniProt P35367); assay: Receptor Profiling 239610; assay type: binding
T7 construct: purchased Eurofins Discovery Services (Panlabs safety panel)
Description: as §2

Opiate Kappa (OP2, KOP) = molecular target: T8, Opiate Kappa (OP2, KOP) (Homo sapiens, UniProt P41145); assay: Receptor Profiling 260210; assay type: binding
T8 construct: purchased Eurofins Discovery Services (Panlabs safety panel)
Description: as §2

[4] = molecular target: T9, Serotonin (5-hydroxytryptamine) 5-HT1B (Homo sapiens, UniProt P28222); assay: Receptor Profiling 271230; assay type: binding
T9 construct: purchased Eurofins Discovery Services (Panlabs safety panel)
Description: as §2

[5] = molecular target: T10, Serotonin (5-hydroxytryptamine) 5-HT2A (Homo sapiens, UniProt P28223); assay: Receptor Profiling 271650; assay type: binding
T10 construct: purchased Eurofins Discovery Services (Panlabs safety panel)
Description: as §2

[6] = molecular target: T11, Serotonin (5-hydroxytryptamine) 5-HT2B (Homo sapiens, UniProt P41595); assay: Receptor Profiling 271700; assay type: binding
T11 construct: Eurofins Discovery Services (contract assay) 271700
Description: as §2

[7] = molecular target: T12, Transporter, Dopamine (DAT) (Homo sapiens, UniProt Q01959); assay: Receptor Profiling 220320; assay type: binding
T12 construct: Eurofins Discovery Services (contract assay) 220320
Description: as §2

in vitro = conditions: mouse, serum
[8] = Serum shift of MIC (+/- 10% fetal bovine serum)
[9] = HepG2 cells, Galactcose, read-out: Mean % viability
[10] = HepG2 cells, Galactcose, replicates, read-out: % viability
[11] = HepG2 cells, Glucose, read-out: Mean % viability
[12] = HepG2 cells, Glucose, replicates, read-out: % viability

T10 sequence (P28223 whole entry): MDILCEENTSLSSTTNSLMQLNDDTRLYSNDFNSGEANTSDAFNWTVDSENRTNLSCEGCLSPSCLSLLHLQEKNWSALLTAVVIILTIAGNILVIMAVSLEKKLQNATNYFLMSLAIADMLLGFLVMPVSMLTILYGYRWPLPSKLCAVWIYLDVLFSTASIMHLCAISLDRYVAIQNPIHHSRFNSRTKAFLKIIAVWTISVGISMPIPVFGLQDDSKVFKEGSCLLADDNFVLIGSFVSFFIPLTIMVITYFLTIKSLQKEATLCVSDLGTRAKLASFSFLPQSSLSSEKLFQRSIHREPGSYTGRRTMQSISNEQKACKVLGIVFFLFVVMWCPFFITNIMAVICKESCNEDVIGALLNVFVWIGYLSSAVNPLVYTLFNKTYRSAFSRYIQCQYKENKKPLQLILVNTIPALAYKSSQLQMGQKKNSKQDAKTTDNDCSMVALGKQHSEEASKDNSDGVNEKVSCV
T4 sequence (Q14432 whole entry): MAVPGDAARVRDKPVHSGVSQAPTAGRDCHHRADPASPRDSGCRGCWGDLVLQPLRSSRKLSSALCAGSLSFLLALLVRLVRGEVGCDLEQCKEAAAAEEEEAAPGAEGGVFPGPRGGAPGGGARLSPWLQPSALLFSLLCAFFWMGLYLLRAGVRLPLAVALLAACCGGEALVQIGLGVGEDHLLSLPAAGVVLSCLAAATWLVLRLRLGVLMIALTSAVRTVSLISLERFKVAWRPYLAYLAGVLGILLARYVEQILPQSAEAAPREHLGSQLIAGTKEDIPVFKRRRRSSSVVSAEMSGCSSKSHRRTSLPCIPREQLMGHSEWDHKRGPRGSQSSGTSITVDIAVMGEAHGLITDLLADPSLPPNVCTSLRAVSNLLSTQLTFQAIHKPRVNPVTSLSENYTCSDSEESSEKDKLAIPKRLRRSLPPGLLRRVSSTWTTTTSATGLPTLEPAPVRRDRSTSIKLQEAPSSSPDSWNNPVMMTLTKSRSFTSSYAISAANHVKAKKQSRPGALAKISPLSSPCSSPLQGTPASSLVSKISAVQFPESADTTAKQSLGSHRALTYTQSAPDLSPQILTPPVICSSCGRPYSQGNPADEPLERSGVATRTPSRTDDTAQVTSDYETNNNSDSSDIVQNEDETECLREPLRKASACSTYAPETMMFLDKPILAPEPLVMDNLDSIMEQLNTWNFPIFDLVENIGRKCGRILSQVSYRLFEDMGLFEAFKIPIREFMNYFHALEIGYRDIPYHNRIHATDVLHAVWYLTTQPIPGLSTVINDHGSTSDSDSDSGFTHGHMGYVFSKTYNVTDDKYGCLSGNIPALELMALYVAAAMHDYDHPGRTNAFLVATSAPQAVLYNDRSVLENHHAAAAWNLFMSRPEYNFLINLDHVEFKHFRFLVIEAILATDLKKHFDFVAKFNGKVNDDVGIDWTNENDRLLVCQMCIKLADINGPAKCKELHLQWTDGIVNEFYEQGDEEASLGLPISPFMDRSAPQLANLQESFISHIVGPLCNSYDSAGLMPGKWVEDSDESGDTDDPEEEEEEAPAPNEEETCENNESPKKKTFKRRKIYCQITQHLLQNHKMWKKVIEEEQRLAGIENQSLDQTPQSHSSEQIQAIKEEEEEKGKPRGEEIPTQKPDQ
T11 sequence (P41595 whole entry): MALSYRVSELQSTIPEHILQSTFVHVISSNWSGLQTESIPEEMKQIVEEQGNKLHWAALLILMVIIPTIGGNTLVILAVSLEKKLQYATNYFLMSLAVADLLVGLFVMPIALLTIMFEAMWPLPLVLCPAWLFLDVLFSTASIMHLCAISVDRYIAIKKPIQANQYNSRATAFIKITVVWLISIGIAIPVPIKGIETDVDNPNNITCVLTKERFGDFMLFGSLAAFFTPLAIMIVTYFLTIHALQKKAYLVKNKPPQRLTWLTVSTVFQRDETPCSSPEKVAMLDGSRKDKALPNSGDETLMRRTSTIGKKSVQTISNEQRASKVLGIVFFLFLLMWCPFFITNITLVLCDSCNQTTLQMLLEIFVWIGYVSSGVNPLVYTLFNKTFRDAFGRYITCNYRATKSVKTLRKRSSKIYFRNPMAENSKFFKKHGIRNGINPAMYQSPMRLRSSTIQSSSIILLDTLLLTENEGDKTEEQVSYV
T9 sequence (P28222 whole entry): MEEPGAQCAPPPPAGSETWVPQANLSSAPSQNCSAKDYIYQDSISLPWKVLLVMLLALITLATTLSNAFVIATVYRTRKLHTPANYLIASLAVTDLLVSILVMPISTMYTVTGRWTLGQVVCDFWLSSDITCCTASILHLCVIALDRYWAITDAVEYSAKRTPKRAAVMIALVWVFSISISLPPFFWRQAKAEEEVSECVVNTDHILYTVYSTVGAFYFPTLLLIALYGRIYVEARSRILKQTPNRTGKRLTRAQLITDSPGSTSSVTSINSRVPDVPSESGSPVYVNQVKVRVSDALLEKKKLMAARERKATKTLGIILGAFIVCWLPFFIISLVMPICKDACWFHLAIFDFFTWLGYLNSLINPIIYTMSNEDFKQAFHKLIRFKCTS
T5 sequence (P14416 1-414 isoform P14416-2): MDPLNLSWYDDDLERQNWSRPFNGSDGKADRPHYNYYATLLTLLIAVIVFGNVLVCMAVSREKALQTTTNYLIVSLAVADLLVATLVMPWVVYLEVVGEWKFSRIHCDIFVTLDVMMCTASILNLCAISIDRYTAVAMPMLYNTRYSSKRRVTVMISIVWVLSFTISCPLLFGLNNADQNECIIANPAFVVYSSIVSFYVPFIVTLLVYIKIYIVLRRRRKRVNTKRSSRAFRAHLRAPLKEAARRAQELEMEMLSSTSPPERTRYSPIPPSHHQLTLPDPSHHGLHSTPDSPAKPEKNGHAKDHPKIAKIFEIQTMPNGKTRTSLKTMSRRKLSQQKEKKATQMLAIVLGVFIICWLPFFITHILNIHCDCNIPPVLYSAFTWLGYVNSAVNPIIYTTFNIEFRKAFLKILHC
T7 sequence (P35367 whole entry): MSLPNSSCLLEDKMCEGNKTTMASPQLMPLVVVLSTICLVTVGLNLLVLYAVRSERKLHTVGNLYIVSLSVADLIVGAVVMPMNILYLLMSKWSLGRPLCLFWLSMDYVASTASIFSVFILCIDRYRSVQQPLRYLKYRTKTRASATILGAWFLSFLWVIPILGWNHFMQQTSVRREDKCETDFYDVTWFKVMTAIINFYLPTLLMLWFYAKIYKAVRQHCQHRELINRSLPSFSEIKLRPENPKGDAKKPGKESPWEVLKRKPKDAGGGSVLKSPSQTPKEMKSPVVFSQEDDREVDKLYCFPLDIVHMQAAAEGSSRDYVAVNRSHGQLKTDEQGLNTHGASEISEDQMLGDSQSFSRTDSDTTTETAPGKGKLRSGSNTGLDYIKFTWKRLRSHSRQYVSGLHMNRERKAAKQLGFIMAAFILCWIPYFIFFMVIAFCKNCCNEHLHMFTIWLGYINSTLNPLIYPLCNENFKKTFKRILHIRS
T6 sequence (P25101 21-427): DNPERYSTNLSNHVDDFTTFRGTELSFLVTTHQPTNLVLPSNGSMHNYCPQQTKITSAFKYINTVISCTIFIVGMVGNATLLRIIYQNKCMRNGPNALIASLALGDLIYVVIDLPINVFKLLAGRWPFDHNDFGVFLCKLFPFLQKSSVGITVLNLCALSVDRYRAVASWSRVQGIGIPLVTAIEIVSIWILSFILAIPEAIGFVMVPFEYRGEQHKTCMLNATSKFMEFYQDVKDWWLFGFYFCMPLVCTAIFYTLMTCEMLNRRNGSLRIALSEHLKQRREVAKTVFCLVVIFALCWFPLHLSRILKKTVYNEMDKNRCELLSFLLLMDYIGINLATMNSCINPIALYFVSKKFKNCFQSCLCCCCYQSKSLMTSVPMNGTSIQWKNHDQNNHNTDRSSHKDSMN
T2 sequence (P10635 whole entry): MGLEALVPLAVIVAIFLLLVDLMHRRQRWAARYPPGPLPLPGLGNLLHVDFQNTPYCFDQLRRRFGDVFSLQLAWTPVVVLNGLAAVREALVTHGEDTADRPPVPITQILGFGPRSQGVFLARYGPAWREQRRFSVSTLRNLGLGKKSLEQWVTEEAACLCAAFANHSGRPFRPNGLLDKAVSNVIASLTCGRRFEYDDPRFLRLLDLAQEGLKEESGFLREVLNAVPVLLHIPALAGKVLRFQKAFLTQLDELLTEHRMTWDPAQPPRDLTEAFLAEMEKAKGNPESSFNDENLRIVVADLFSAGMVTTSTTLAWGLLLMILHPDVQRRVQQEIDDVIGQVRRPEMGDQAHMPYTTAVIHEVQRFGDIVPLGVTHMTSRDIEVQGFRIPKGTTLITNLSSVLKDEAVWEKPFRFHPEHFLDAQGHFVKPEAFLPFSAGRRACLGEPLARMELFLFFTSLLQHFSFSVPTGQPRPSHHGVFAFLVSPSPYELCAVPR
T12 sequence (Q01959 whole entry): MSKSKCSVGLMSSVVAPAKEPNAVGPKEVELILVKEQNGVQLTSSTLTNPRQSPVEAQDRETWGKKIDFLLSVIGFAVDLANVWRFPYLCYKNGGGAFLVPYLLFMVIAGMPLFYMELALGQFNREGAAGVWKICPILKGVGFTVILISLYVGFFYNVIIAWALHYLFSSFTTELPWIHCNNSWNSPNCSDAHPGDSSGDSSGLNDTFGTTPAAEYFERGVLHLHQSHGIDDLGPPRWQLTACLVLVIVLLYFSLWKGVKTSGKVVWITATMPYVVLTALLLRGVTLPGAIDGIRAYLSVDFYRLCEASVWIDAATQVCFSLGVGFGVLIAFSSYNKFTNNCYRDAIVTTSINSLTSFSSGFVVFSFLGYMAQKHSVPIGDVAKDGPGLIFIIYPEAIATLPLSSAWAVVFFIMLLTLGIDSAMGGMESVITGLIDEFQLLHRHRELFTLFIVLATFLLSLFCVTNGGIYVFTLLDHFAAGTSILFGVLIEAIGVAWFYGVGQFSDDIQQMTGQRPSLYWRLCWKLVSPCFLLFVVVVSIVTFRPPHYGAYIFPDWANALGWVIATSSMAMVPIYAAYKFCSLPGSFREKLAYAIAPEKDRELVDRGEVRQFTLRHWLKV

**Q.** What does the source list for `O=C(Nc1nnc(-c2ccc(F)cc2)o1)N1CCc2ccccc2C1` [MBX-4132]?
**A.** % of translation activity (translation; [MBX-4132] 0.01 uM): 94% and 99%; % of translation activity (translation; [MBX-4132] 0.1 uM): 98% and 102%; % of translation activity (translation; [MBX-4132] 1 uM): 92% and 103%; % of translation activity (translation; [MBX-4132] 2 uM): 86% and 97%; % of translation activity (translation; [MBX-4132] 10 uM): 106% and 98%; % of translation activity (translation; [MBX-4132] 20 uM): 97% and 96%; % of translation activity (translation; [MBX-4132] 50 uM): 93% and 99%; inhibition of translation in vitro (in words) (translation; full-length nano-luciferase gene control): did not inhibit translation; also recorded: does not inhibit translation; Microsomal stability (t½, min) Rat ([1]; Reported value, Eurofins): >120 min; half-life ([1]; rat, liver microsomes, read-out: Microsomal Stability (t1/2; min) Rat): > 2 h; fraction unbound ([2]; Average Value, Eurofins, read-out: Serum binding (% bound) Dog (converted)): 0.048; fraction unbound ([2]; Replicate 1/2, Eurofins, read-out: Serum binding (% bound) Dog (converted)): 0.095 and 0.002; fraction unbound ([2]; Reported value, Eurofins, read-out: Serum binding (% bound) Dog (converted)): 0.048; fraction unbound ([2]; read-out: Serum Binding (% bound) Dog (converted)): 0.048; MIC (Haemophilus influenzae; Haemophilus influenzae ATCC 35056, replicates): 17 µg/mL (≈ 50.2 µM); MIC (Haemophilus influenzae; Haemophilus influenzae, ATCC35056, Haemophilus influenzae ATCC 35056, replicates, read-out: MIC): 17 µg/mL (≈ 50.2 µM); MIC (Haemophilus influenzae; Haemophilus influenzae, ATCC35056, strain ATCC 35056, read-out: MIC): 17.5 µg/mL (≈ 51.7 µM); viability at 24 h, 1e-05 μM ([3]; Glucose, Conc. (μM) 1.00E-05, replicates): 108%; viability at 24 h, 100 µM [3, 9]: 64%; viability at 24 h, 100 µM [3, 10]: 65.3%; viability at 24 h, 10 µM ([3]; HepG2 cells, Galactcose, Conc. (μM) 1.00E-05): 95.4%; viability at 24 h, 3 µM [3, 9]: 94.1%; viability at 24 h, 3 µM [3, 10]: 93.9%; viability at 24 h, 30 µM ([3]; HepG2 cells, Galactose, Conc. (μM) 3.00E-05, 24 h): 96.8%; viability at 24 h, 100 µM [3, 11]: 81.9%; viability at 24 h, 100 µM [3, 12]: 78.3%; viability at 24 h, 10 µM ([3]; HepG2 cells, Glucose, Conc. (μM) 1.00E-05): 108%; viability at 24 h, 3 µM [3, 11]: 110%; viability at 24 h, 3 µM [3, 12]: 116%; % viability (HepG2 cells; Galactcose, Conc. (μM) 1.00E-04): 62.7%; % viability (HepG2 cells; Galactcose, Conc. (μM) 3.00E-05): 99.1%; % viability (HepG2 cells; Galactcose, Conc. (μM) 3.00E-06): 94.2%; % viability (HepG2 cells; Glucose, Conc. (μM) 1.00E-04): 85.6%; % viability (HepG2 cells; Glucose, Conc. (μM) 1.00E-05): 107.5%; % viability (HepG2 cells; Glucose, Conc. (μM) 3.00E-05): 106.5%; % viability (HepG2 cells; Glucose, Conc. (μM) 3.00E-06): 103.0%; differential toxicity glucose vs galactose (in words) (HepG2 cells; HepG2 cells): did not induce differential toxicity; pIC50 (µM) reported (CYP1A): No activity; IC50 (CYP2C19): > 100 µM; IC50 (CYP2D6): > 100 µM; inhibition at 10 µM (Cycloogenase COX-2): 10%; inhibition at 10 µM (Phosphodiesterase PDE3A): -6%; inhibition at 10 µM (Dopamine D2s): 21%; inhibition at 10 µM (Endothelin ETA): -15%; inhibition at 10 µM (Histamine H1): 11%; inhibition at 10 µM (Opiate Kappa (OP2, KOP)): 13%; inhibition at 10 µM [4]: 21%; inhibition at 10 µM [5]: 18%; inhibition at 10 µM [6]: 44%; inhibition at 10 µM [7]: 3%; remaining at 1 h (in vitro; Murine serum stability (% remaining after 1 hr)): 109%; remaining at 1 h (in vitro; Murine serum stability (% remaining after 1 hr), Replicate 1/2, MBX): 92.6%; remaining at 1 h (in vitro; Murine serum stability (% remaining after 1 hr), Reported value, MBX): > 99.8%; remaining at 1 h (in vitro; serum stability, % remaining after 1 h, murine serum, 1 h incubation at 37 °C): > 99.8%; Serum shift (fold) ([8]; Average Value): 16 fold; serum Shift ([8]; Ratio of MIC +/- 10% fetal bovine serum added): 16; Serum shift (fold) ([8]; Replicate 1/2): 16 fold
